Drawing on PubChem BioAssay (NCI), this text covers TGI for 12 compounds.

The structures appear in SMILES notation.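 Growth conditions: 96-well plates. Treatment: test compound, 48 hours, 5 concentrations. Analysis: linear interpolation between bracketing concentrations; unreached endpoints set to highest concentration. The concentration for full growth arrest is given as TGI.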 A value given as a limit tells only on which side of the number the result lay.

Test systems include DU-145 prostate; KM12 colon; HS 578T breast; LOX IMVI melanoma; HT29 colon; OVCAR-8 ovarian; A549 NSCLC; SK-OV-3 ovarian; COLO 205 colon; MOLT-4 leukemia; PC-3 prostate; SK-MEL-5 melanoma.
Holding throughout (assay): NCI-60 cell line screen, 48 h

For `CN1CCC(O)(C(C)(C)C)CC1`, the TGI with DU-145 prostate, with KM12 colon, in the experiment with HS 578T breast, in the experiment with LOX IMVI melanoma, in the experiment on HT29 colon and with OVCAR-8 ovarian was > 100 µM throughout. Moreover, the TGI in the experiment with A549 NSCLC, in the experiment on SK-OV-3 ovarian, in the experiment on COLO 205 colon, in the experiment on MOLT-4 leukemia, in the experiment on PC-3 prostate and in the experiment with SK-MEL-5 melanoma was > 100 µM each time.
Regarding `CON(C)C(=O)CNC(=O)OCC1c2ccccc2-c2ccccc21`, the TGI is > 100 µM in the experiment on DU-145 prostate; > 100 µM in the experiment with KM12 colon; > 100 µM with HS 578T breast; 53.1 µM in the experiment on LOX IMVI melanoma; > 100 µM in the experiment on HT29 colon; > 100 µM with OVCAR-8 ovarian. The TGI with A549 NSCLC, in the experiment with SK-OV-3 ovarian, in the experiment on COLO 205 colon, in the experiment with MOLT-4 leukemia, in the experiment on PC-3 prostate and in the experiment with SK-MEL-5 melanoma was > 100 µM in each case.
Regarding `O=C1CSC(c2cccc(Oc3ccccc3)c2)N1c1ccc(Cl)cc1` (centres undefined), the TGI in the experiment with DU-145 prostate is > 100 µM; in the experiment on KM12 colon it was > 100 µM; in the experiment on HS 578T breast, > 100 µM; in the experiment on LOX IMVI melanoma, 50.9 µM; with HT29 colon it was > 100 µM; in the experiment with OVCAR-8 ovarian, > 100 µM. The TGI in the experiment with A549 NSCLC was > 100 µM; in the experiment with SK-OV-3 ovarian, > 100 µM; in the experiment with COLO 205 colon, 35.5 µM; with MOLT-4 leukemia it was 56.1 µM; in the experiment on PC-3 prostate it was > 100 µM; in the experiment with SK-MEL-5 melanoma, 25.2 µM.
As to `Cc1nc(-c2cc3cc([N+](=O)[O-])ccc3oc2=O)cs1`, the TGI in the experiment with DU-145 prostate, with KM12 colon, in the experiment on HS 578T breast, in the experiment on LOX IMVI melanoma, with HT29 colon and in the experiment on A549 NSCLC was > 100 µM each time. The TGI in the experiment with SK-OV-3 ovarian, in the experiment with COLO 205 colon, in the experiment with MOLT-4 leukemia, with PC-3 prostate and in the experiment on SK-MEL-5 melanoma was > 100 µM each time.
Turning to `O=C1/C(=N/O)Cc2c(Br)ccc(Br)c21`, the TGI with DU-145 prostate, in the experiment with KM12 colon, in the experiment with HS 578T breast, with LOX IMVI melanoma, in the experiment on HT29 colon and with OVCAR-8 ovarian was > 100 µM in each case. Besides, the TGI was > 100 µM with SK-OV-3 ovarian, 82.4 µM in the experiment on MOLT-4 leukemia, > 100 µM with PC-3 prostate and > 100 µM in the experiment on SK-MEL-5 melanoma.
With `CCCCN1C(=O)N(c2ccc(OCC)cc2)C2N(CCCC)C1C(C)(C)C2(C)C` (centres undefined), the TGI in the experiment on DU-145 prostate is > 100 µM; in the experiment on KM12 colon, > 100 µM; with HS 578T breast, 75.2 µM; in the experiment with LOX IMVI melanoma, > 100 µM; in the experiment with HT29 colon, > 100 µM; in the experiment on OVCAR-8 ovarian, > 100 µM. Besides, the TGI in the experiment on A549 NSCLC was > 100 µM; in the experiment with SK-OV-3 ovarian, 57 µM; in the experiment with COLO 205 colon it was 70 µM; in the experiment with PC-3 prostate, > 100 µM; with SK-MEL-5 melanoma, 67.7 µM.
`CCOC(=O)c1nc2ccc(C(F)(F)F)cc2nc1NCc1cc(OC)c(OC)c(OC)c1`: the TGI with DU-145 prostate, in the experiment with KM12 colon, in the experiment on HS 578T breast, in the experiment on LOX IMVI melanoma, with HT29 colon and in the experiment on OVCAR-8 ovarian was > 100 µM throughout. Besides, the TGI was > 100 µM in the experiment on A549 NSCLC; 73.4 µM in the experiment on COLO 205 colon; > 100 µM with MOLT-4 leukemia; > 100 µM in the experiment with PC-3 prostate; > 100 µM in the experiment on SK-MEL-5 melanoma.
As for `CCOc1cn(C2CC(O)C(CO)O2)c(=O)[nH]c1=O` (centres undefined), the TGI in the experiment with DU-145 prostate, in the experiment with KM12 colon, with HS 578T breast, in the experiment with LOX IMVI melanoma, in the experiment with HT29 colon and in the experiment with A549 NSCLC was > 100 µM in each case. The TGI with SK-OV-3 ovarian, in the experiment on COLO 205 colon, with MOLT-4 leukemia, with PC-3 prostate and in the experiment on SK-MEL-5 melanoma was > 100 µM in each case.
Take `CC1OC(OC2C(O[C@H]3CC[C@@]4(C)C(=CC[C@H]5[C@@H]6C[C@@H]7O[C@]8(CC[C@@H](CO)CO8)[C@@H](C)[C@@H]7[C@@]6(C)CC[C@@H]54)C3)OC(CO)C(O)C2OC2OC(CO)C(O)C(O)C2O)C(O)C(O)C1O` (some centres undefined): the TGI in the experiment with DU-145 prostate stood at 3.34 µM; in the experiment on KM12 colon it was 3.57 µM; in the experiment with HS 578T breast, 8.06 µM; with LOX IMVI melanoma, 3.39 µM; in the experiment with HT29 colon, 4.91 µM; in the experiment with OVCAR-8 ovarian, 3.46 µM. For the same compound, the TGI with A549 NSCLC was 4.48 µM; in the experiment on SK-OV-3 ovarian, 4.19 µM; in the experiment on COLO 205 colon it was 3.42 µM; in the experiment on PC-3 prostate, 3.33 µM; in the experiment with SK-MEL-5 melanoma it was 3.11 µM.
Turning to `OCC(O)COCn1nncc1Cn1ncc2c(SCc3ccccc3)ncnc21` (centres undefined), the TGI in the experiment with DU-145 prostate was > 100 µM; in the experiment on KM12 colon, > 100 µM; in the experiment on HS 578T breast, 25.7 µM; with LOX IMVI melanoma it was > 100 µM; in the experiment with HT29 colon, > 100 µM; with OVCAR-8 ovarian, > 100 µM. For the same compound, the TGI in the experiment with A549 NSCLC, in the experiment with SK-OV-3 ovarian, in the experiment with COLO 205 colon, with PC-3 prostate and in the experiment with SK-MEL-5 melanoma was > 100 µM each time.
As to `CC(=O)OCC12C(=O)C[C@@H](C)C3(CC(c4ccoc4)OC3=O)C1CCC(OC(C)=O)C21CO1` (some centres undefined), the TGI in the experiment with DU-145 prostate, in the experiment on KM12 colon, in the experiment with HS 578T breast, with LOX IMVI melanoma, in the experiment on HT29 colon and with OVCAR-8 ovarian was > 100 µM each time. The TGI with A549 NSCLC, in the experiment on COLO 205 colon, in the experiment on MOLT-4 leukemia, in the experiment with PC-3 prostate and in the experiment with SK-MEL-5 melanoma was > 100 µM each time.
Consider `O=C1CC(=Nc2ccc(Cl)cc2)C(c2ccccc2)N1c1ccccc1` (centres undefined), for which the TGI in the experiment with DU-145 prostate was 53 µM; with KM12 colon, > 100 µM; with HS 578T breast, 26.6 µM; in the experiment with LOX IMVI melanoma, 61.5 µM; in the experiment with HT29 colon it was 37.4 µM; with A549 NSCLC, > 100 µM. The TGI was 51.6 µM with SK-OV-3 ovarian; 16.4 µM in the experiment on COLO 205 colon; > 100 µM in the experiment with MOLT-4 leukemia; > 100 µM in the experiment with PC-3 prostate; 22.8 µM with SK-MEL-5 melanoma.
